Experimental data reported in ChEMBL document CHEMBL1129129, “Modelisation, synthesis and antiviral evaluation of new 2,3-disubstituted thiazolidinone nucleoside analogues” (Bioorg Med Chem Lett, 1996).

Assays:
MT4 [1] = assay: Compound was tested for its cytotoxicity against HIV-1 infected MT-4 cell lines; type: functional; details: Homo sapiens
Anas sp. [2] = assay: Compound was tested for its cytotoxicity against duck hepatitis B virus in duck fetal hepatocytes culture; type: functional; details: Hepatocyte
Anas sp. [3] = assay: Compound was tested for its antiviral activity against hepatitis B virus(DHBV) in duck fetal hepatocytes culture; type: functional, organism-based; details: Hepatocyte
MT4 [4] = assay: Compound was tested to inhibit HIV-1 replication in MT-4 cell lines; value may range from 1 - 10; type: functional, cell-based; details: Homo sapiens
MT4 [5] = assay: Compound was tested to inhibit HIV-1 replication in MT-4 cell lines; type: functional, cell-based; details: Homo sapiens
MT4 [6] = assay: Compound was tested to inhibit HIV-1 replication in MT-4 cell lines; value may range from 5 - 15; type: functional, cell-based; details: Homo sapiens

Compound | CC50 (MT4 [1]) [µM] | CC50 (Anas sp. [2]) [µM] | IC50 (Anas sp. [3]) [µM] | IC50 (MT4 [4]) [µM] | IC50 (MT4 [5]) [µM] | IC50 (MT4 [6]) [µM]
Nc1ccn(C2CS[C@H](CO)O2)c(=O)n1 (single isomer, unassigned) [LAMIVUDINE] | 100 | > 400 | 0.1 |  |  | 
Nc1nc(=O)n(CCN2C(=O)CSC2COC(=O)c2ccccc2)cc1F (stereo not drawn) | 100 |  |  | 10 |  | 
Nc1ccn(CCN2C(=O)CSC2COC(=O)c2ccccc2)c(=O)n1 (stereo not drawn) | ~100 |  |  |  | ≥ 100 | 
Cc1cn(CCN2C(=O)CSC2CO)c(=O)[nH]c1=O (stereo not drawn) | 100 | ≥ 200 | 2 |  |  | 15
Nc1nc(=O)n(CCN2C(=O)CSC2CO)cc1F (stereo not drawn) | 100 | 150 | 2 | 10 |  | 
Nc1ccn(CCN2C(=O)CSC2CO)c(=O)n1 (stereo not drawn) | ~300 | 100 | 2 |  | ≥ 300 | 
Nc1ncnc2c1ncn2CCN1C(=O)CSC1CO (stereo not drawn) | 100 | 200 | 2 | 10 |  | 
